Our source for the GI50 and TGI values is PubChem BioAssay (NCI).

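Each compound was tested at five concentrations against cells in 96-well plates for 48 hours. GI50: concentration for 50% inhibition of growth. TGI denotes the concentration required for complete inhibition of growth.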

Some test systems named below: SNB-19 CNS; SK-MEL-2 melanoma; SNB-75 CNS; HCT-15 colon; SN12C renal; M14 melanoma; A498 renal; UACC-62 melanoma; NCI-H522 lung; SR leukemia.
Test in all cases: growth of human tumour cells (NCI), 48 h

Take `O=S(=O)([O-])[O-].[OH3+].[OH3+].[OH3+].[Ru+2].c1ccccc1`: the GI50 in the assay on SNB-19 CNS, with SK-MEL-2 melanoma, in the assay on SNB-75 CNS, in the assay on HCT-15 colon, in the assay with SN12C renal and in the assay on M14 melanoma was more than 100 µM throughout. Moreover, the TGI in the assay on SNB-19 CNS, in the assay with SK-MEL-2 melanoma, in the assay with SNB-75 CNS, in the assay with HCT-15 colon, with SN12C renal and in the assay with M14 melanoma was more than 100 µM in each case.

Regarding `O=C(Nc1ccc(S(=O)(=O)Nc2nccs2)cc1)c1cccnc1Nc1cccc(Cl)c1`, the GI50 was 14.7 µM in the assay with SNB-19 CNS; 9.43 µM in the assay with SNB-75 CNS; 10.1 µM in the assay on A498 renal; 6.62 µM in the assay with UACC-62 melanoma; 13.5 µM in the assay with HCT-15 colon; 11 µM in the assay with NCI-H522 lung. In addition, the results for the GI50 with SN12C renal and with M14 melanoma were 12.5 µM and 15.7 µM, respectively. Moreover, the TGI with SNB-19 CNS was 34.4 µM; in the assay with SNB-75 CNS, 51.3 µM; with A498 renal, 23.7 µM; in the assay on UACC-62 melanoma, 20.3 µM; in the assay with HCT-15 colon, 27.5 µM; in the assay with NCI-H522 lung, 28.4 µM. Besides, the TGI with SN12C renal was 25.9 µM; in the assay on M14 melanoma it was 34.9 µM.

In the case of `CC(=O)N(C)OC(=O)CC(=O)c1ccccc1`, the TGI in the assay with SNB-19 CNS, in the assay on SR leukemia, in the assay with SNB-75 CNS, in the assay with UACC-62 melanoma, in the assay on NCI-H522 lung and in the assay on SN12C renal was more than 100 µM throughout. The TGI in the assay with M14 melanoma is more than 100 µM.

As for `CC(C)C(C(=O)O)N(CC1(O)OCC(O)C(O)C1O)N=O` (stereo not drawn), the TGI with SK-MEL-2 melanoma, in the assay with SNB-75 CNS, in the assay on A498 renal, in the assay with UACC-62 melanoma, in the assay on NCI-H522 lung and in the assay with M14 melanoma was more than 100 µM in each case.

For `Oc1ccc2ccccc2c1C=NCCCN=Cc1c(O)ccc2ccccc12`, the GI50 in the assay with SNB-19 CNS was 14.7 µM; in the assay with SK-MEL-2 melanoma it was 12.6 µM; with UACC-62 melanoma, 4.27 µM; in the assay with HCT-15 colon, 5.13 µM; with NCI-H522 lung, 4.91 µM; in the assay with M14 melanoma it was 7.94 µM. The TGI is more than 100 µM with SNB-19 CNS; 37.2 µM in the assay on SK-MEL-2 melanoma; 16.8 µM in the assay with UACC-62 melanoma; 28.5 µM in the assay on HCT-15 colon; 41.5 µM with NCI-H522 lung; 23.1 µM with M14 melanoma.

`O=C1C=CC(=O)c2c1ccc1c3ccccc3n(-c3ccccn3)c21`: the TGI with SK-MEL-2 melanoma was more than 100 µM; with SNB-75 CNS it was more than 100 µM; in the assay with HCT-15 colon, 35.3 µM; in the assay with NCI-H522 lung, 8.67 µM; with SN12C renal it was more than 100 µM; in the assay on M14 melanoma, 87.9 µM.

As for `C/C(CN1C(=O)c2ccccc2C1=O)=N\NS(=O)(=O)c1cccc([N+](=O)[O-])c1`, the TGI with SNB-19 CNS, in the assay on SK-MEL-2 melanoma, in the assay with SNB-75 CNS, in the assay on A498 renal, in the assay on UACC-62 melanoma and in the assay on HCT-15 colon was more than 100 µM each time. Further, the TGI in the assay with NCI-H522 lung, in the assay with SN12C renal and in the assay with M14 melanoma was more than 100 µM each time.

For `NC(=S)/N=C/c1c(O)c2ccccc2oc1=O`, the TGI with SNB-19 CNS was more than 100 µM; with SK-MEL-2 melanoma it was 97.3 µM; in the assay with SNB-75 CNS, 87 µM; with A498 renal, more than 100 µM; with UACC-62 melanoma it was more than 100 µM; in the assay on HCT-15 colon it was more than 100 µM. Besides, the TGI with NCI-H522 lung, in the assay on SN12C renal and with M14 melanoma was more than 100 µM throughout.

For `COc1ccc(-c2ccc(C3CC(c4ccc(O)cc4)=NN3)o2)c([N+](=O)[O-])c1` (stereo not drawn), the GI50 in the assay on SNB-19 CNS was 82.6 µM; in the assay with A498 renal, 30.4 µM; in the assay on UACC-62 melanoma, 33.1 µM; in the assay on HCT-15 colon, 35.4 µM; in the assay on NCI-H522 lung, 39 µM; in the assay on SN12C renal, 30.8 µM. Moreover, in the assay on M14 melanoma, the GI50 is 36.1 µM. Also, the TGI with SNB-19 CNS, in the assay with A498 renal, with UACC-62 melanoma, in the assay on HCT-15 colon, in the assay with NCI-H522 lung and with SN12C renal was more than 100 µM throughout. The compound also came in with a TGI with M14 melanoma of more than 100 µM.

In the case of `CN(C)c1ccc(-c2cc(=O)c3ccccc3[nH]2)cc1`, the TGI in the assay on SNB-19 CNS, in the assay on SR leukemia, in the assay with HCT-15 colon, with NCI-H522 lung, in the assay on SN12C renal and with M14 melanoma was more than 100 µM each time.

Regarding `C=C1C(=O)O[C@@H]2C[C@@H]1CC[C@]1(C)O[C@H]1CC[C@@]1(C)O[C@@H]1CC[C@@]2(C)O`, the GI50 in the assay on SNB-19 CNS was 68.6 µM; in the assay with SR leukemia it was 3.49 µM; with SK-MEL-2 melanoma it was 50.1 µM; with UACC-62 melanoma, 42 µM; in the assay with HCT-15 colon, 29.2 µM; in the assay on NCI-H522 lung, 19.1 µM. The results for the GI50 with SN12C renal and with M14 melanoma were 22.5 µM and 34.2 µM, respectively. Also, the TGI in the assay on SNB-19 CNS was more than 100 µM; in the assay with SR leukemia, 31.1 µM; in the assay with SK-MEL-2 melanoma, more than 100 µM; in the assay on UACC-62 melanoma it was more than 100 µM; with HCT-15 colon, more than 100 µM; in the assay on NCI-H522 lung, 46.2 µM. Moreover, the TGI is 61.5 µM in the assay with SN12C renal and more than 100 µM in the assay on M14 melanoma.

As to `O=C(O)c1ccc(NC(=O)C2C(=O)C(=O)N(c3ccc(C(=O)O)cc3)C2=O)cc1` (stereo not drawn), the TGI with SNB-19 CNS, with SK-MEL-2 melanoma, in the assay on SNB-75 CNS, in the assay on A498 renal, in the assay on UACC-62 melanoma and with HCT-15 colon was more than 100 µM throughout. The TGI in the assay with NCI-H522 lung and in the assay with SN12C renal was more than 100 µM in each case.

Take `Cn1ncc(=S)[nH]c1=S`: the TGI with SNB-19 CNS, in the assay on SK-MEL-2 melanoma, in the assay on SNB-75 CNS, in the assay with A498 renal, in the assay with UACC-62 melanoma and with HCT-15 colon was more than 100 µM in each case. The TGI in the assay with NCI-H522 lung, in the assay with SN12C renal and with M14 melanoma was more than 100 µM throughout.

Turning to `O=P(c1ccccc1)(c1ccccc1)C1CC=C(c2ccccc2)C2(CCCC2)C1` (stereo not drawn), the TGI in the assay with SNB-19 CNS, with SK-MEL-2 melanoma, with SNB-75 CNS, with A498 renal, with UACC-62 melanoma and with HCT-15 colon was more than 100 µM throughout. The TGI in the assay on SN12C renal and with M14 melanoma was more than 100 µM in each case.
